Active and inactive are the calls of the source. No cut-off for these calls is given here.

A short description of data set [1]: Cytotoxicity against mouse BV2 cells assessed as maximum non-toxic concentration after 24 hrs by MTT assay. The class given is cell-based, BV-2. A general note: Tetrazolium dyes change colour on reduction, which living cells bring about.
The subject of data set [2] is BV-2. Briefly: Neuroprotective activity in mouse BV2 cells assessed as inhibition of LPS-induced nitric oxide production at maximum non-toxic concentration treated 1 hr before LPS addition measured after 24 hrs by colorimetric analysis. The class given is functional, cell-based.
The subject of data set [3] is BV-2. Briefly: Neuroprotective activity in mouse BV2 cells assessed as increase of LPS-induced nitric oxide production at maximum non-toxic concentration treated 1 hr before LPS addition measured after 24 hrs by colorimetric analysis. In kind it is functional, cell-based.
Data set [4] has as its system BV-2. The data set is described as follows: Neuroprotective activity in mouse BV2 cells assessed as increase of LPS-induced TNFalpha production at maximum non-toxic concentration treated 1 hr before LPS addition measured after 24 hrs by ELISA. In kind it is functional, cell-based. On the technique in general: An ELISA detects its analyte on a solid surface through an enzyme-linked reagent.

Data set [5] relates to BV-2. Briefly: Neuroprotective activity in mouse BV2 cells assessed as inhibition of LPS-induced TNFalpha production at maximum non-toxic concentration treated 1 hr before LPS addition measured after 24 hrs by ELISA. In kind it is functional, cell-based.

As for `C[C@@H]1CC(=O)C=C2CC[C@@H]([C@](C)(O)CO)C[C@]21C` [(11S)-NOOTKATONE-11,12-DIOL], in data set [1], the MNTC at 24 h stood at 30 µM. In data set [2], the inhibition entry is “inactive”.

Regarding `CC(=O)[C@H]1CC[C@@]2(C)CC(=O)C=C(C)[C@@]2(O)C1`, the MNTC at 24 h in data set [1] was 100 µM. Moreover, in data set [2], the inhibition result is “inactive”. Moreover, the result in data set [3] was Active.

With `CC(=O)C1=CC2=C(C)C(=O)CC[C@@]2(C)CC1`, in data set [1], the MNTC at 24 h amounted to 100 µM. Moreover, the inhibition result in data set [2] was “inactive”. For the same compound, in data set [3], the outcome was Active.

For the compound `COc1ccc2c(c1)c(CC(=O)O)c(C)n2C(=O)c1ccc(Cl)cc1` [INDOMETHACIN], the MNTC at 24 h in data set [1] was determined as 10 µM.

On to `C=C(C)[C@]1(O)CC[C@]2(C)CC(=O)C=C(C)[C@H]2C1`, for which the MNTC at 24 h in data set [1] turned out to be 0.1 µM. Moreover, the result in data set [4] was Active. In addition, the inhibition result in data set [2] is “inactive”.

For `CC(C)[C@H]1CCC(=O)C2=C1[C@H](O)[C@](C)(O)CC2` [OXYPHYLLENODIOL B], in data set [1], the MNTC at 24 h came out at 1 µM. Further, in data set [2], the inhibition result was “Active”.

As to `C=C(C)[C@@H]1CC(=O)C2=CC(=O)C[C@@H](C)[C@]2(C)C1`, the MNTC at 24 h in data set [1] stood at 0.1 µM. In addition, the result in data set [4] was Active. In addition, in data set [2], the inhibition result is “Active”.

In the case of `CC1=CC(=O)C[C@@]2(C)C[C@H]3OC(=O)C(C)=C3C[C@H]12`, the MNTC at 24 h in data set [1] was determined as 100 µM. In addition, in data set [2], the inhibition entry is “inactive”. Moreover, in data set [3], the result was Active.

On to `C=C(C)[C@@H]1CCC2=CC(=O)C[C@@H](C)[C@]2(C)C1` [NOOTKATONE], for which the MNTC at 24 h in data set [1] is 0.1 µM. In addition, in data set [4], the outcome was Active. Besides, the inhibition entry in data set [2] was “inactive”.

Take `CC(C)[C@@H]1CCC(=O)C2=C1[C@H](O)[C@](C)(O)CC2` [OXYPHYLLENODIOL A]: the MNTC at 24 h in data set [1] was 100 µM. Moreover, in data set [2], the inhibition result was “inactive”.

`C=C(C)[C@@H]1CCC2=C[C@@H](O)C[C@@H](C)[C@]2(C)C1` [BETA-NOOTKATOL]: the MNTC at 24 h in data set [1] stood at 30 µM. In addition, the inhibition result in data set [2] is “Active”.

As for `C[C@@]12CCC(=O)C=C1[C@](C)(O)[C@H](O)CC2` [OXYPHYLLENONE B], the MNTC at 24 h in data set [1] was determined as 10 µM. Further, the inhibition entry in data set [2] was “inactive”.

Consider `CC1=C2C=C(C(C)(O)CO)CC[C@]2(C)CCC1=O` (stereo not given in full) [OXYPHYLLANENE F], for which the MNTC at 24 h in data set [1] came to 0.1 µM. The inhibition result in data set [2] was “inactive”.

For `Cc1ccc2c(c1O)[C@H](C(C)C)CCC2=O`, the MNTC at 24 h in data set [1] is 100 µM. Besides, the inhibition entry in data set [2] was “Active”.

For `N=C(N)NN` [PIMAGEDINE], in data set [1], the MNTC at 24 h was 1000 µM.

For `Cc1ccc2c(c1)[C@H](C(C)C)CCC2=O` [(4S)-10-NOR-CALAMENEN-10-ONE], the MNTC at 24 h in data set [1] came out at 0.1 µM. The inhibition entry in data set [2] is “inactive”. The result in data set [3] was Active.

Take `C[C@@]12CCC(=O)C=C1[C@@](C)(O)[C@H](O)CC2` [OXYPHYLLENONE A]: the MNTC at 24 h in data set [1] stood at 100 µM. Also, the inhibition entry in data set [2] was “inactive”. Moreover, the inhibition result in data set [5] is “Active”.
